Source: patent publication US10736971B2, “Peptide-based molecules for modulating car expression or accessibility and uses thereof” (Wright State University, priority 2015, dated 2020)
Residues, ends and D or L forms follow the SMILES beside them.

Columns and labels:
[1] = tested on: CAR^Ex8; assay: Immunocytochemistry of CAR^Ex8 in polarized MDCK cells; format: cell-based, canine; settings: 50 μM
From the text: CAR^Ex8 is localized mainly at the apical surface of polarized MDCK cells. […] Red (CAR^Ex8), Green (MAGI-1, a junctional protein), Blue (nucleus, DAPI). 60× oil immersion confocal microscopy.
(A) CAR^Ex8 (red) localizes mainly at the apical membrane of MDCK epithelial cells (see xz section). […] 60× oil immersion confocal microscopy.

[2] = tested on: AdV; assay: qPCR of AdV viral genome in primary human airway epithelia; format: cell-based; settings: versus control
[3] = tested on: CAR^Ex8; assay: Western blot of CAR^Ex8 in well differentiated primary human airway epithelia; format: cell-based; settings: versus control
From the text: (A) Western blotting from human airway epithelia treated with either TAT-scramble or TAT-PDZ1 peptides (TAT-E6 or TAT-NET1). […] Actin was used to confirm equal protein loading.

[4] = tested on: AdV; assay: qPCR of AdV viral genome (transduction/entry) in MDCK epithelia; format: cell-based, canine; settings: versus control
From the text: (§1) MAGI-1 PDZ binding peptides (BP) can alter CAR^EX8 apical protein levels and AdV infection. […] A) MAGI-1 PDZ1 can rescue CAR^Ex8 expression while PDZ3 decreases CAR^EX8 expression. B) Peptides that bind to PDZ3 will prevent degradation of CAR^Ex8 and rescue CAR^EX8 expression and C) peptides that bind to PDZ1 will prevent rescue of CAR^Ex8 and […] CAR^Ex8 degradation. D) Apical surface-specific biotinylation of polarized MDCK epithelia treated with PDZ1 binding peptide decreases apical levels of CAR^EX8 while PDZ3 binding peptide increase apical CAR^EX8, relative to control. E) Treatment with PDZ3 binding peptide increases while PDZ1 binding peptide decreases AdV5-β-Gal entry as determined by qPCR for viral genomes (Vg). F) AdV5-Cre infection turns cells from red (uninfected) to green (infected) in tDT-mouse airway epithelial cells. Baseline infection in control-peptide treated airway epithelia show an even distribution of uninfected red cells and infected green cells.
(§2) (A) Western blotting of MDCK cells treated with either TAT-CAR^Ex8 or control TAT-CAR^Ex8-AA. […] (C) Polarized MDCK cells were treated with either TAT-CAR^Ex8 or TAT-ESAM and the apical surface subjected to apical surface biotinylation, followed by neutravidin pull down and Western blot of apical surface proteins. […] (E) TAT-cell permeable peptides interrupt MAGI-1-CAR^Ex8 interactions. […]

[5] = biological target: MAGI-1 PDZ1 domain (Homo sapiens, UniProt Q96QZ7); assay: Ligand binding assay with purified MAGI-1 PDZ1 domain
From the text: Ligand binding assay between TAT-ESAM and purified MAGI-1 PDZ1 or PDZ-3.
MAGI-1 PDZ3 domain was used as a control.

[6] = tested on: CAR^Ex8; assay: Western blot / apical surface biotinylation of CAR^Ex8 in MDCK epithelia; format: cell-based, canine
From the text: as §1, §2

[7] = tested on: primary human airway epithelia; assay: Epithelial integrity (TER, FITC-Dextran diffusion) and toxicity; format: cell-based
Protocol: In panel (A), epithelial cells were seeded on transwells and treated with a single dose of PBS, TAT-scramble or TAT-PDZ3 (TAT-CAR^Ex8 or TAT-ESAM) peptides (50 μM) daily for 16 days. Transepithelial resistance (TER) was measured every other day for 16 days to indicate the amount of epithelial polarization. […] Each condition represents the average of 4 replicates. (B) FITC-Dextran 4 kDa diffusion across treated epithelia in the absence of EDTA. […] (C) Pre-treatment with EDTA to disrupt tight junctions increased Dextran 4 kDa permeability in all conditions. FITC-Dextran 4 kDa was added to the apical membrane compartment and Dextran present in the basolateral media was measured and quantified. […] FITC-Dextran 70 kDa was added to the apical membrane compartment and Dextran in the basolateral media was measured and quantified.
(A) Primary human airway epithelial cells were treated with a single dose of PBS, TAT-scramble (50 μM), or TAT-PDZ1 peptides (50 μM) each day for 14 days. Transepithelial resistance (TER) was taken every other day for 14 days. No change in TER was noticeable upon treatment with TAT-PDZ1 peptides indicating similar epithelium formation. (B) FITC-Dextran 4 kDa diffusion across treated epithelia in the presence or absence of EDTA. There was no difference in Dextran 4 kDa diffusion among treatments indicating intact epithelial tight junctions. Pre-treatment with EDTA increased Dextran 4 kDa permeability similarly in all conditions indicating disruption of epithelial tight junctions. FITC-Dextran 4 kDa was added to the apical membrane and the diffused Dextran was collected from the basolateral media and measured. (C) There was no difference in Dextran 70 kDa diffusion among treatments indicating intact epithelial tight junctions. FITC-Dextran 70 kDa was added to the apical membrane and the diffused Dextran was collected from the basolateral media and measured.

Sequence of MAGI-1 PDZ1 domain (Q96QZ7 472-554 limits assumed): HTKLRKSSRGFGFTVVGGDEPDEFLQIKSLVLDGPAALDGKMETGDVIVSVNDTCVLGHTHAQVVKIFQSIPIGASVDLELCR

CC(C)C[C@H](NC(=O)[C@H](CCC(N)=O)NC(=O)[C@@H](NC(=O)[C@H](CCC(=O)O)NC(=O)[C@H](CCCNC(=N)N)NC(=O)[C@H](CCCNC(=N)N)NC(=O)[C@@H](NC(=O)[C@H](CCCNC(=N)N)NC(=O)[C@H](CO)NC(=O)[C@H](CCC(N)=O)NC(=O)[C@@H]1CCCN1C(=O)[C@@H]1CCCN1C(=O)[C@H](CCCNC(=N)N)NC(=O)[C@H](CCCNC(=N)N)NC(=O)[C@H](CCCNC(=N)N)NC(=O)[C@H](CCC(N)=O)NC(=O)[C@H](CCCNC(=N)N)NC(=O)[C@H](CCCNC(=N)N)NC(=O)[C@H](CCCCN)NC(=O)[C@H](CCCCN)NC(=O)[C@H](CCCNC(=N)N)NC(=O)CN)[C@@H](C)O)[C@@H](C)O)C(=O)O [TAT-E6] (H-GRKKRRQRRRPPQSRTRRETQL-OH; N-terminus and C-terminus assumed)
Effect on junctional staining of MAGI-1 [1]: minor to no effect
Immunolocalization of endogenous CAR^Ex8 [1]: delocalization of CAR^Ex8 to the nuclear compartment
AdV genomic transduction / entry (qPCR of viral genome) [2]: significant decrease
CAR^Ex8 protein level (Western blotting) [3]: marked decrease
AdV genomic transduction / entry (qPCR of viral genome) [4]: significant decrease
Kd [5]: 0.015 ± 0.004 µM
CAR^Ex8 protein level (Western blotting) [6]: marked decrease

CC(C)C[C@H](NC(=O)[C@H](CO)NC(=O)CNC(=O)[C@H](C)NC(=O)[C@H](CCC(N)=O)NC(=O)[C@H](CO)NC(=O)[C@H](CCC(N)=O)NC(=O)[C@H](C)NC(=O)[C@H](CCC(N)=O)NC(=O)[C@@H]1CCCN1C(=O)[C@@H]1CCCN1C(=O)[C@H](CCCNC(=N)N)NC(=O)[C@H](CCCNC(=N)N)NC(=O)[C@H](CCCNC(=N)N)NC(=O)[C@H](CCC(N)=O)NC(=O)[C@H](CCCNC(=N)N)NC(=O)[C@H](CCCNC(=N)N)NC(=O)[C@H](CCCCN)NC(=O)[C@H](CCCCN)NC(=O)[C@H](CCCNC(=N)N)NC(=O)CN)C(=O)N[C@H](C(=O)O)C(C)C [TAT-ESAM] (H-GRKKRRQRRRPPQAQSQAGSLV-OH; N-terminus and C-terminus assumed)
Transepithelial resistance (TER) ([7]; 50 μM daily for 16 days, versus control): No difference
FITC-Dextran 70 kDa diffusion across epithelia ([7]; TAT-PDZ3 peptide study): no difference
FITC-Dextran 4 kDa diffusion across epithelia ([7]; absence of EDTA, TAT-PDZ3 peptide study): no difference
Toxicity to epithelia ([7]; primary human airway epithelia): no overt toxicity
